Reference: US20220348910A1, “METHODS AND COMPOSITIONS FOR MULTIPLEX GENE EDITING” (THE GOVERNING COUNCIL OF THE UNIVERSITY OF TORONTO, priority 2019, published 2022)

Test system: HPRT1
Experiment: Pooled positive selection hgRNA screen for resistance to 6-thioguanine
Type: cell-based, human
Conditions: 6-TG treated cells
Description: Lentiviral-based positive selection pooled hgRNA screens were performed, and the human HPRT1 and TK1 genes were targeted using guide pairs that either target within exonic regions, which are expected to result in gene knockout, or intronic loci flanking constitutive exons in these genes, which are expected to result in exon deletion (FIG. 1D). All of the exon-flanking hgRNAs in the library were designed to introduce double-strand DNA breaks at intronic sites that are at least 100 bps distal from splice sites flanking the target exons.
At T18 15 million cells were collected for genomic DNA extraction, and hgRNA expression cassettes were amplified and subjected to high-throughput sequencing as described below.

In the case of `Nc1nc2nc[nH]c2c(=S)[nH]1` [6-TG, 6-thioguanine], the “library constructs undetectable when cells were treated with 6-TG” value is reported as 95.8%.
